Earlier results on one molecule are cited in US20050142187A1, “Enhanced absorption of modified release dosage forms” (priority 2003, published 2005).

In the case of `CC1(C)S[C@@H]2[C@H](NC(=O)[C@H](N)c3ccc(O)cc3)C(=O)N2[C@H]1C(=O)O` [Amoxicillin, amoxicillin], the Food effect entry (current scientific literature) was “either a negligible or a negative food effect”. Moreover, the Window of absorption (known in the art, "or less") was 3 to 4 h.
